Where a name gives a salt, the structure may show the parent alone. Read-outs that look alike come from different tables or passages of the source.
Assays:
[1] = low solubility-low permeability; cited from earlier work
[2] = Dissolution test: solubility in simulated gastrointestinal fluids, ursolic acid in the supernatant by HPLC; conditions: FaSSGF pH = 1.6; stirred 2 hours at 25° C., supernatant filtered 0.2 μm
Description: (§1) Analysis of the solid dispersions and the measure of the solubility in simulated gastrointestinal fluids were performed by HPLC with the instrument and conditions reported below.
(§2) Stirring was stopped and any undissolved solid was let to decant. The supernatant was filtered through a hydrophilic 0.2 μm PTFA filter and analyzed for the content of ursolic acid.
(§3) The same procedure as Test 1 was followed, using 100 mg of ursolic acid instead of the dispersion of example 1.
(§4) The same procedure as Test 1 was followed, using 100 mg ursolic acid potassium salt instead of the dispersion of example 1.

physchem = conditions: 25 °C, thermodynamic from solid
Description: as §1, §2, §3, §4

Compound: 3β-hydroxy-urs-12-en-28-oic acid [ursolic acid]
- Ursolic acid in solution (pH 1.6): <LOD*
- Ursolic acid in solution (pH 5): 0.083 mg/mL
- Ursolic acid in solution (pH 6.5): 0.032 mg/mL
- class according to the biopharmaceutical classification system (BCS) [1]: class IV

Compound: C[C@H]1[C@H](C)CC[C@]2(C(=O)O)CC[C@]3(C)C(=CC[C@@H]4[C@@]5(C)CC[C@H](O)C(C)(C)[C@@H]5CC[C@]43C)[C@H]12 [ursolic acid potassium salt]
- Ursolic acid in solution [2]: <LOD*
- solubility thermodynamic at 2 h (physchem; FaSSIF (simulated gastrointestinal fluid), pH 6.5, fassif): 154 µg/mL
- solubility thermodynamic at 2 h (physchem; FeSSIF (simulated gastrointestinal fluid), pH 5, fessif): 318 µg/mL

From patent publication US12605347B2, “Solid dispersion of ursolic acid and potassium salt” (Indena S.P.A., priority 2019, dated 2026)
